Calls of active or inactive are those of the source. Cut-off read from the data, not from the text of the source, for most assays here: actives have a measured IC50 and inactives only a lower limit.
Legend:
Caspase-3 = biological target: T1, Caspase-3 (Homo sapiens, UniProt P42574); assay type: functional;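 note: Dose-response selectivity test against caspase-3 for candidate inhibitors of sentrin-specific proteases (SENPs)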
T1 sequence (P42574 whole entry): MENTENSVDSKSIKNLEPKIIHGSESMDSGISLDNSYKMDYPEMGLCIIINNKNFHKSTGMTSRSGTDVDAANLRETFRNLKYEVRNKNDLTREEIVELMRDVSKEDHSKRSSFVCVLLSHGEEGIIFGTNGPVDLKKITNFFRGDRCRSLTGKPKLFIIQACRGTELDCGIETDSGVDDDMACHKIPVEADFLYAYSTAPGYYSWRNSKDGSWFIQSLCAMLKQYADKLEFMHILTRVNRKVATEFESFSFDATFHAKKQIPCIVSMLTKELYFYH

[1] = biological target: T2, Sentrin-specific protease 6 (Homo sapiens, UniProt Q9GZR1); assay type: functional;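 note: Luminescence-based dose-response confirmatory assay of SENP6 inhibition, following up an ultra-high-throughput screen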
T2 sequence (Q9GZR1 whole entry): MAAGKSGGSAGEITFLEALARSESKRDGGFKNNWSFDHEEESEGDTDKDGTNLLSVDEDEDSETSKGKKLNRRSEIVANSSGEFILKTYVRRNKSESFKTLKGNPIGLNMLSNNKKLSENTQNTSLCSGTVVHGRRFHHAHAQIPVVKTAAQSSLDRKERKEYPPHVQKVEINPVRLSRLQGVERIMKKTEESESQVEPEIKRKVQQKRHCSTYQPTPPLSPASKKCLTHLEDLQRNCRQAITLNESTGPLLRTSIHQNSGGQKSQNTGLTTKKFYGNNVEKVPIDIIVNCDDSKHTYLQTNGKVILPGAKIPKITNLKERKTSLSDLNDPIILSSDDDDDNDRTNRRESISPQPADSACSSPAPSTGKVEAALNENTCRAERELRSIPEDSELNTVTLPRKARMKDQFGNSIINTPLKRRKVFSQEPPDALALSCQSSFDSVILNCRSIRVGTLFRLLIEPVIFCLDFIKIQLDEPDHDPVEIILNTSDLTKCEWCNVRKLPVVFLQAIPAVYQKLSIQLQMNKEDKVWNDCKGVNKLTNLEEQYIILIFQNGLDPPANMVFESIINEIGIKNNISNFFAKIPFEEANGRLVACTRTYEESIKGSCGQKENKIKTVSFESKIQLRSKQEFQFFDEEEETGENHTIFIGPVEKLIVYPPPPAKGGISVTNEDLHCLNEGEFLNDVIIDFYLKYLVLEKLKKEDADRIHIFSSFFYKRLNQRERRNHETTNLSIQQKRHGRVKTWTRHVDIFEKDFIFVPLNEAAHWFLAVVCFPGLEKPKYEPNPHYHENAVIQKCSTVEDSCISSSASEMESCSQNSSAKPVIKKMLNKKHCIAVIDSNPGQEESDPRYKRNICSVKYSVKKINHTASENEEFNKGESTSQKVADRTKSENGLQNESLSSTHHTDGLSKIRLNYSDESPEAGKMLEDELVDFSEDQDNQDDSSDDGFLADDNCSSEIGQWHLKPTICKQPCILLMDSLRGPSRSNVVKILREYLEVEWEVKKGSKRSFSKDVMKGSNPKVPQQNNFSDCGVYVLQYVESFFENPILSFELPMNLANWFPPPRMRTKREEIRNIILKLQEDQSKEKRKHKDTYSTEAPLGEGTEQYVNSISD

[2] = biological target: T3, Sentrin-specific protease 8 (Homo sapiens, UniProt Q96LD8); assay type: functional;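 note: luminescence read-out of SENP8 inhibition, dose-response confirmation following an ultra-high-throughput screen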
T3 sequence (Q96LD8 whole entry): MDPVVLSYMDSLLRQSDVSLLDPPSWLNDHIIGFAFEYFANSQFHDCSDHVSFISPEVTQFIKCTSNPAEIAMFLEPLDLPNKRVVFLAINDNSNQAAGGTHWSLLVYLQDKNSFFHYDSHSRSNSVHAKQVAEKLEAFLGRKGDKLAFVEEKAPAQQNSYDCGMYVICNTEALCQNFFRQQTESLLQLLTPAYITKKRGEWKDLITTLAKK

[3] = biological target: T4, Histone-lysine N-methyltransferase NSD2 (Homo sapiens, UniProt O96028); assay type: biochemical
T4 sequence (O96028 whole entry): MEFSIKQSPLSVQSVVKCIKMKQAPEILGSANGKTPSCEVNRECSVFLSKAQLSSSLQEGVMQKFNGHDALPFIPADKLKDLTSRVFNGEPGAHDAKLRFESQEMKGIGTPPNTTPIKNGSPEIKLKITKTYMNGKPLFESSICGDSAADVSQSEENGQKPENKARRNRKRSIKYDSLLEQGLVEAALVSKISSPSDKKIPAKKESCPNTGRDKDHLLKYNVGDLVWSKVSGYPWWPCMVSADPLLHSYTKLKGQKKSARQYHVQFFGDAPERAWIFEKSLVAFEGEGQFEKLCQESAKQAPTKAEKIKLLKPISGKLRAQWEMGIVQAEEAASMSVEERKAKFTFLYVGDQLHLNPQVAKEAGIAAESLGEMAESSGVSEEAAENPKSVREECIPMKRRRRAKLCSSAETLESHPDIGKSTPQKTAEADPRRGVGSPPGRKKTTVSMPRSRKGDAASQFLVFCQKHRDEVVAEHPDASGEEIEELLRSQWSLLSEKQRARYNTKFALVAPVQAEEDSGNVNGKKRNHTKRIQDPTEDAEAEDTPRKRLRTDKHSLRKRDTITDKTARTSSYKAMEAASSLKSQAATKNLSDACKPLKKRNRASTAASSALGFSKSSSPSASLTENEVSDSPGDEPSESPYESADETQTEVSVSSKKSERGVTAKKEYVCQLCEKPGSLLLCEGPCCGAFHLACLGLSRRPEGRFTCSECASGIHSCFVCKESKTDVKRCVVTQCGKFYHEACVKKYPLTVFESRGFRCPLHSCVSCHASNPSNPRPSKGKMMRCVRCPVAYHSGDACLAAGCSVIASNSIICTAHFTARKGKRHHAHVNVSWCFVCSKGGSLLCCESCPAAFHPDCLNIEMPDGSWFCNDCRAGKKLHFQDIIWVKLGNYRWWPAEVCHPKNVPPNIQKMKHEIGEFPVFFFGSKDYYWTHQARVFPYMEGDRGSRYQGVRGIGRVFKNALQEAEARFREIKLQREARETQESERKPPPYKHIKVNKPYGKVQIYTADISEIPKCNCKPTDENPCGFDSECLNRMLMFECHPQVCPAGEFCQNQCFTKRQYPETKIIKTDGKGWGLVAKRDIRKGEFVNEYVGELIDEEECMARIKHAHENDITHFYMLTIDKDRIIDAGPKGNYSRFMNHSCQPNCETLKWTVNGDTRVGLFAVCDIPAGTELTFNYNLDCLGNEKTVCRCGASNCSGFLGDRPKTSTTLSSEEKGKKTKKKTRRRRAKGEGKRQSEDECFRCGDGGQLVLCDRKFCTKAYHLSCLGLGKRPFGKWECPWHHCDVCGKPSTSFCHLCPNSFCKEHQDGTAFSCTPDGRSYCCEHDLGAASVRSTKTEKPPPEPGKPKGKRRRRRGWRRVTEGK

COc1ccc(NC(=S)Nc2ccc3nsnc3c2)cc1
active: IC50 (Caspase-3) 7.54 µM | IC50 [1] 2.3 µM | IC50 [2] 2.74 µM | AC50 [3] 3.57 µM

CC(C)(C)c1cc[n+](C2=C([N-]S(=O)(=O)c3ccccc3)C(=O)c3ccccc3C2=O)cc1
active: IC50 (Caspase-3) 76.7 µM | IC50 [1] 8.45 µM | IC50 [2] 13.6 µM | AC50 [3] 2.63 µM

O=C1C(=O)c2ccccc2C(O)=C1CCCCl
active: IC50 (Caspase-3) 37.8 µM | IC50 [1] 7.23 µM | IC50 [2] 14.4 µM

O=C1C=C(Nc2ccccc2C(=O)O)c2ccccc2C1=O
active: IC50 (Caspase-3) 4.8 µM | IC50 [1] 2 µM | IC50 [2] 3.3 µM

— ChEMBL document CHEMBL1201862, “PubChem BioAssay data set” (2004)
